The record followed here is patent US20250034200A1, “Prodrugs of Neurosteroid Analogs and Uses Thereof” (priority 2021, published 2025).

Structures can show the parent of a compound that is named as a salt. Where two headings read alike, the source gives them in different places.

Series [1] can be described thus: Aqueous stability assay (HPLC, pseudo first-order half-life). Format: physicochemical. The settings on record: DPBS pH 7.0-7.3, 1 mg/mL, room temperature; for half-life at 1 mg/mL / half-life: buffer, read-out: PBS t1/2 (converted). The protocol: Aqueous stability experiments were performed on an Agilent 1100 HPLC equipped with an Agilent 1200 autosampler. HPLC grade solvents were exclusively used during analysis, with acetonitrile being purchased from Sigma Aldrich, and water and formic acid provided by Fisher Scientific. […]
[…] All mixtures were then sonicated for 5 min or stirred until complete dissolution was achieved. Any precipitate observed in sample solutions was filtered with a PTFE syringe filter prior to analysis. Immediately after sample preparation, injection by the HPLC autosampler was performed, which was recorded as the initial time point (t=0 min). Samples were then kept in the autosampler at room temperature and injected at designated intervals without additional filtration or sample modification. Next, the area of the parent peak in each chromatogram was determined by automated integration in the Agilent ChemStation software. Pseudo first-order half-lives were then ascertained by calculating the percent of the parent compound remaining after each time point. Plots of time (x-axis) vs. the natural logarithm of percent parent remaining (y-axis) were subsequently constructed to determine the slope. Finally, the aqueous stability was evaluated using the following equation:
The HPLC conditions were as follows: injection volume, 1 μL; column temperature: 40° C.; detector: 254 nm; stationary phase: Zorbax Eclipse XDB-C18 (4.6×150 mm, 5 μm); flow rate: 1 mL/min; mobile phase: 80-95% acetonitrile in H2O (0.1% formic acid).

Series [2] is described as follows: Plasma stability assay (LC-MS/MS). Format: in vitro ADME. The following applies: human plasma, 37° C., 3 μM. The protocol: Procaine and procainamide were purchased from Sigma Aldrich. HPLC-grade acetonitrile, water, methanol, and formic acid were purchased from Fisher Scientific. Human plasma (Cat. No. […]2N) was obtained from BIOIVT, and PBS (1×Dulbecco's, pH 7.4) from Thermo Fisher Scientific.
Test compounds were dissolved in DMSO to make a stock solution of 10 mM and then diluted to 500 μM in buffer or 70% methanol. Human plasma was thawed at ambient temperature and aliquoted (994.0 μL) to a 1.5 mL Eppendorf tube in duplicates (vials A and B) for each compound. The plasma was incubated at 37° C. for 10 min in an incubator shaker at 150 RPM; the reaction was initiated by addition of the test compound (6.0 μL), followed by vortex mixing. The total reaction volume was 1000 μL, the final organic solvent concentrations were […] (when 70% methanol was used for dilution) and 0.03% DMSO, and the final concentration of the test compound was 3 μM. The spiked plasma samples were incubated at 37° C. for 4 h. The reactions were terminated at time point 0, 15, 30, 60, 120, 180, and 240 min by taking a 100 μL aliquot from the test incubation mixture and immediately quenching it by adding it into ice-cold acetonitrile or methanol (150 μL) containing 2 μM internal standard (ISTD), followed by vortex mixing. The ISTD was d5-7-ethoxy coumarin. The samples were then centrifuged at 15000 RPM for 25 min at 4° C., and the supernatant was transferred to an LC-MS vial for analysis by LC-MS/MS. Each time point was tested in duplicates followed by in-between blank washes to avoid carryover and to equilibrate the column.
Procaine (poor plasma stability) and procainamide (good plasma stability) were used as controls at the same concentration as that of the test compound. These controls were run in parallel to test the assay's competency. Matrix blank was prepared by adding acetonitrile or methanol containing ISTD to plasma samples without any of the test or control compounds. Also, an additional control sample was made to simply monitor compound degradation in PBS buffer.
Below is a summary of samples prepared for a given test compound in a typical plasma stability assay: • Test compound (TC): 994 μL human plasma+6.0 μL TC (Vial A) 994 μL human plasma+6.0 μL TC (Vial B) • Control: 596 μL human plasma+3.6 μL (procaine+procainamide) • Blank matrix: 500 μL PBS buffer+100 μL human plasma • Additional control: 142 μL PBS buffer+0.9 μL TC • Quenching mixture: 150 μL acetonitrile or methanol with ISTD (2 μM) • Final volume: 250 μL (100 μL from the incubation mixture+150 μL quenching mixture; final ISTD conc.: 1.2 μM)
LC-MS/MS analysis was performed using Agilent 1260 Infinity II HPLC, coupled with an Agilent G6460 triple quadrupole mass spectrometer (Agilent Technologies, USA). The data were acquired and processed using the Agilent 6460 Quantitative Analysis data processing software.
Reverse-phase HPLC separation for each compound was achieved on an Agilent InfinityLab Poroshell 120 C18 column (2.1×50 mm, 2.7 μm) with a mobile phase composed of methanol/water with 0.1% formic acid or acetonitrile/water with 0.1% formic acid at a flow rate of 0.5 mL/min. Each method was developed in the presence of the ISTD. The column temperature was maintained at 40° C. The detection was operated using the Agilent Jet-Stream electrospray positive ionization under the multiple reaction monitoring mode. The mass spec conditions were as follows: dwell time 100 ms; gas flow 10 L/min; nebulizer pressure 45 psi; delta EMV 200 V.
Plots of time (x-axis) vs. the natural logarithm of percent parent remaining (y-axis) were subsequently constructed to determine the slope. Finally, the plasma stability was evaluated using the following equation: […]

Setting [3] is: read-out: Plasma t1/2 (converted).

With `C/C(=N\OC(=O)NCCCN)[C@H]1CC[C@H]2[C@@H]3CCC4=CC(=O)CC[C@]4(C)[C@H]3CC[C@]12C` [32e, (8S,9S,10R,13S,14S,17S)-17-((E)-1-((((3-aminopropyl)carbamoyl)oxy)imino)ethyl)-10,13-dimethyl-1,2,6,7,8,9,10,11,12,13,14,15,16,17-tetradecahydro-3H-cyclopenta[a]phenanthren-3-one hydrochloride], the “PBS t1/2” value in series [1] (d (days)) came out at 120 days. The half-life at 1 mg/mL in series [1] was 2880 h.
For `C/C(=N\OC(=O)OCCN)[C@H]1CC[C@H]2[C@@H]3CCC4=CC(=O)CC[C@]4(C)[C@H]3CC[C@]12C` [32f, (8S,9S,10R,13S,14S,17S)-17-((E)-1-((((2-aminoethoxy)carbonyl)oxy)imino)ethyl)-10,13-dimethyl-1,2,6,7,8,9,10,11,12,13,14,15,16,17-tetradecahydro-3H-cyclopenta[a]phenanthren-3-one hydrochloride], the half-life at 1 mg/mL in series [1] is 0.11 ± 0.01 h.
`C/C(=N\OC(=O)N1CCC[C@H]1CN)[C@H]1CCC2[C@@H]3CCC4=CC(=O)CC[C@]4(C)[C@H]3CC[C@@]21C` (stereo partly drawn) [32h, ((2S)-1-(((((E)-1-((8S,9S,10R,13S,17S)-10,13-dimethyl-3-oxo-2,3,6,7,8,9,10,11,12,13,14,15,16,17-tetradecahydro-1H-cyclopenta[a]phenanthren-17-yl)ethylidene)amino)oxy)carbonyl)pyrrolidin-2-yl) methanaminium chloride]: the half-life at 1 mg/mL in series [1] (d (days)) is above 720 h. Also, the half-life at 3 µM in series [2] (setting [3]) was above 4 h.
For the compound `CNC[C@@H]1CCCN1C(=O)O/N=C(\C)[C@H]1CCC2[C@@H]3CCC4=CC(=O)CC[C@]4(C)[C@H]3CC[C@@]21C.Cl` (stereo partly drawn) [32k, 1-((2S)-1-(((((E)-1-((8S,9S,10R,13S,17S)-10,13-dimethyl-3-oxo-2,3,6,7,8,9,10,11,12,13,14,15,16,17-tetradecahydro-1H-cyclopenta[a]phenanthren-17-yl)ethylidene)amino)oxy)carbonyl)pyrrolidin-2-yl)-N-methylmethanaminium chloride], the results for the half-life in series [1] (d (days)) and in series [2] (setting [3]) were above 720 h and above 4 h, respectively.
On the same counts, the results for `C/C(=N\OC(=O)N(C)C[C@@H]1CCCCN1)[C@H]1CCC2[C@@H]3CCC4=CC(=O)CC[C@]4(C)[C@H]3CC[C@@]21C.Cl` (stereo partly drawn) [32l, (8S,9S,10R,13S,17S)-10,13-dimethyl-17-((E)-1-(((methyl(((S)-piperidin-2-yl)methyl)carbamoyl)oxy)imino)ethyl)-1,2,6,7,8,9,10,11,12,13,14,15,16,17-tetradecahydro-3H-cyclopenta[a]phenanthren-3-one hydrochloride] are 475 h and 6.8 h.
For the compound `C/C(=N\OC(=O)N(C)C[C@@H]1C[C@@H](O)CN1)[C@H]1CC[C@H]2[C@@H]3CCC4=CC(=O)CC[C@]4(C)[C@H]3CC[C@]12C.O=C(O)C(F)(F)F` [32m, (8S,9S,10R,13S,14S,17S)-17-((E)-1-((((((2S,4R)-4-hydroxypyrrolidin-2-yl)methyl)(methyl)carbamoyl)oxy)imino)ethyl)-10,13-dimethyl-1,2,6,7,8,9,10,11,12,13,14,15,16,17-tetradecahydro-3H-cyclopenta[a]phenanthren-3-one 2,2,2-trifluoroacetate], in series [1], the half-life is 1.3 h.
Regarding `C/C(=N\OC(=O)OC[C@@H]1CCCN1)[C@H]1CCC2[C@@H]3CCC4=CC(=O)CC[C@]4(C)[C@H]3CC[C@@]21C.Cl` (stereo partly drawn) [32n, (8S,9S,10R,13S,17S)-10,13-dimethyl-17-((E)-1-((((((S)-pyrrolidin-2-yl)methoxy)carbonyl)oxy)imino)ethyl)-1,2,6,7,8,9,10,11,12,13,14,15,16,17-tetradecahydro-3H-cyclopenta[a]phenanthren-3-one hydrochloride], the half-life in series [1] is 0.09 ± 0.01 h.
For the compound `C/C(=N\OC(=O)N(C)CCNCCF)[C@H]1CC[C@H]2[C@@H]3CCC4=CC(=O)CC[C@]4(C)[C@H]3CC[C@]12C.O=C(O)C(F)(F)F` [32o, (E)-2-((8S,9S,10R,13S,14S,17S)-10,13-dimethyl-3-oxo-2,3,6,7,8,9,10,11,12,13,14,15,16,17-tetradecahydro-1H-cyclopenta[a]phenanthren-17-yl)-11-fluoro-6-methyl-4-oxa-3,6,9-triazaundec-2-en-5-one 2,2,2-trifluoroacetate], in series [1], the half-life at 1 mg/mL was 36.1 ± 2.4 h. Moreover, in series [2], the “Plasma t1/2” value worked out at 2.2 h.
On to `CNCCN(CC(=O)O)C(=O)O/N=C(\C)[C@H]1CC[C@H]2[C@@H]3CCC4=CC(=O)CC[C@]4(C)[C@H]3CC[C@]12C.O=C(O)C(F)(F)F` [53g, N-(((((E)-1-((8S,9S,10R,13S,14S,17S)-10,13-dimethyl-3-oxo-2,3,6,7,8,9,10,11,12,13,14,15,16,17-tetradecahydro-1H-cyclopenta[a]phenanthren-17-yl)ethylidene)amino)oxy)carbonyl)-N-(2-(methylamino)ethyl)glycine 2,2,2-trifluoroacetate], for which, in series [1], the half-life was above 24 h.
Same read-out and setting: under `CNCCN(CCC(=O)O)C(=O)O/N=C(\C)[C@H]1CC[C@H]2[C@@H]3CCC4=CC(=O)CC[C@]4(C)[C@H]3CC[C@]12C.O=C(O)C(F)(F)F` [53h, 3-((((((E)-1-((8S,9S,10R,13S,14S,17S)-10,13-dimethyl-3-oxo-2,3,6,7,8,9,10,11,12,13,14,15,16,17-tetradecahydro-1H-cyclopenta[a]phenanthren-17-yl)ethylidene)amino)oxy)carbonyl)(2-(methylamino)ethyl)amino) propanoic acid 2,2,2-trifluoroacetate] stands above 24 h.
As to `C/C(=N\OC(=O)N(CCNC(C)(C)C)C(C)(C)C)[C@H]1CC[C@H]2[C@@H]3CCC4=CC(=O)CC[C@]4(C)[C@H]3CC[C@]12C.Cl` [54c, (E)-6-(tert-butyl)-2-((8S,9S,10R,13S,14S,17S)-10,13-dimethyl-3-oxo-2,3,6,7,8,9,10,11,12,13,14,15,16,17-tetradecahydro-1H-cyclopenta[a]phenanthren-17-yl)-10,10-dimethyl-4-oxa-3,6,9-triazaundec-2-en-5-one hydrochloride], the half-life in series [1] is above 24 h. For the same compound, in series [2] (2 h), the “Plasma % rmn at 2 h” value is 93%.
Take `C/C(=N\OC(=O)N(C)Cc1ccccn1)[C@H]1CC[C@H]2[C@@H]3CCC4=CC(=O)CC[C@]4(C)[C@H]3CC[C@]12C` [compound 36, (8S,9S,10R,13S,14S,17S)-10,13-dimethyl-17-((E)-1-(((methyl(pyridin-2-ylmethyl)carbamoyl)oxy)imino)ethyl)-1,2,6,7,8,9,10,11,12,13,14,15,16,17-tetradecahydro-3H-cyclopenta[a]phenanthren-3-one]: the half-life in series [2] (setting [3]) was 222 h.
